Laboratory results taken from PMC6696415, “Supersaturation Potential of Amorphous Active Pharmaceutical Ingredients after Long-Term Storage” (Molecules, 2019).

Assays:
[1] = In vitro supersaturation under non-sink conditions (µDISS Profiler, tenfold supersaturation ratio, spray-dried solids); assay type: physicochemical; details: for RAUC (AUC ratio spray-dried/crystalline) / RCmax,app (Cmax,app ratio spray-dried/crystalline): tenfold supersaturation ratio, phosphate buffer pH 6.5, 37 °C, 60 min; for Ratio AUC (RAUC) / Ratio Cmax (RCmax,app): pH 6.5, 37 °C
Method: The protocol is described in Edueng et al.. In short, the experiment was initiated by constructing a standard curve (R^2 ≥ 0.97) covering the possible concentrations attained from the supersaturation. […] For this purpose, a small-scale dissolution apparatus, the µDISS Profiler (pION Inc., Billerica, MA, USA), was used. The temperature and stirring rate were maintained at 37 °C and 100 rpm, respectively, and the supersaturation behavior was monitored for 60 min. The experiments were conducted in triplicate for each sample type.
The effects of physical aging and/or crystallization upon storage on the performance at tenfold supersaturation were assessed on the basis of the following parameters: (i) the apparent maximum concentration achieved (Cmax,app); (ii) the area under the curve (AUC); and (iii) the crystallization rate constant (k) (see Figure 9). Cmax,app refers to the maximum supersaturation concentration attained by dissolving amorphous solid in the medium before a decline in concentration was observed. […] The crystallization rate constant (k) defines the rate at which a decrease in concentration was observed. It gives an indication of the crystallization rate upon dissolution and is expressed as the reciprocal of the x-axis time units.
These three parameters were determined using GraphPad Prism version 8.1.0 for Windows (GraphPad Software, San Diego, CA, USA). Cmax,app was obtained by determining descriptive statistics of the tabulated dissolution data. It corresponds to the maximum value or highest point in the dissolution data (referred to as “maximum” in the Graphpad software). The AUC was computed based on the trapezoidal rule. The Cmax,app and AUC of the fresh and the aged/crystallized spray-dried samples were divided by the Cmax,app and AUC of the crystalline samples to obtain the ratios of both parameters (see Equations (1) and (2)). The ratios were then referred to as RCmax,app and RAUC, respectively. The crystallization was approximated following first-order kinetics, leading to Equation (3). The k value was determined by performing a nonlinear curve fitting of Equation (3) from the time point of Cmax,app of the supersaturation profiles of the samples using the same software. (1) RCmax,app=Cmax,SD/Cmax,cryst (2) RAUC=AUCSD/AUCcryst (3) C(t)=(C0−C∞)·e^−k·t+C∞
In Equation (3), C0 is the fitted concentration at t = 0, C∞ is the estimated concentration at infinite time, and k is the rate constant. In our study, the concentration is expressed in µg/mL while k is expressed in min^−1.

[2] = Physical stability study of spray-dried amorphous APIs stored at 75% RH, 25 °C (solid state by Raman, MDSC, PXRD); assay type: physicochemical; details: for Estimated Amorphous Content at Day 168 / Crystal Growth / Crystallization Initiation Propensity / Time to Complete Crystallization / Time to Start Crystallization: 75% RH at 25 °C; for Estimated Amorphous Content at Day 168: semi-quantitative Raman analysis; for Stability for 168 Days at 75% RH / Crystal Growth / Crystallization Initiation Propensity / Time to Complete Crystallization / Time to Start Crystallization: spray-dried amorphous API; for Stability for 168 Days at 75% RH: 25 °C; for Time to Complete Crystallization / Time to Start Crystallization: up to 168 days
Method: The amorphous solids were prepared by spray-drying. In short, solutions containing the APIs of interest were prepared by dissolving the crystalline powder in either ethanol, acetone, or a mixture of 90:10 (% w/w) ethanol/acetone prior to spray-drying. Any unwanted debris and particulate contaminants were removed by filtration (0.45 µm pore size). Thereafter, the solutions were spray-dried using a Büchi B-290-Mini Spray Dryer with an inert loop (Büchi Laboratoriums, Flawil, Switzerland) according to the processing parameters previously described by Edueng et al.. After spray-drying, the collected solids were divided and kept in two different wide-mouth aluminum containers. These open containers were placed in a vacuumed desiccator overnight to remove any residual solvent. The vacuum-dried solids were subsequently characterized with different solid-state analytical methods, studied for their supersaturation behavior, and stored in the stability chamber for 168 days (6 months). Following the overnight vacuum-drying, the spray-dried materials were placed in a stability chamber with a 75% relative humidity level and constant temperature of 25 °C. The samples were stored in open wide-mouth aluminum containers. Samples were withdrawn from the stability chamber at 1, 2, 7, 14, 28, 84, and 168 day(s) for the solid-state analyses. These analyses monitored the physical stability of the amorphous API, and the supersaturation study investigated the impact of solid-state changes on the supersaturation potential and crystallization kinetics. The preparation of these materials and the physical stability protocol are described in detail in Edueng et al..
A Twin-Twin (Bruker, Coventry, UK) measuring in Bragg–Brentano geometry and equipped with a sample rotator was used to collect the X-ray diffractograms of the unprocessed crystalline and freshly spray-dried APIs. The solid samples were gently ground with a mortar and pestle when the powder was too coarse. Thereafter, they were placed on silicon sample holders which rotated at 40 rpm during the measurement. The X-ray source was a rotating copper anode with an accelerating voltage of 40 kV and current of 40 mA. The emitted Cu Kα radiation (λ = 1.54 Å) was used in the measurements. A diffraction pattern in the 2Ө range between 5° and 40° was collected at a scanning step of 0.01° and 0.3 s exposure time at each step. Primary and secondary divergence slits of 0.40 and 2.48 mm, respectively, were used. Since this technique provides a more direct interpretation regarding the amorphous and/or crystalline content of samples, it was used to ensure that the spray-dried APIs were fully amorphous prior to the initiation of other analyses. Based on this information, the reference Raman spectra for the fully amorphous and fully crystalline samples of each compound could be established.
Modulated differential scanning calorimetry (MDSC) was performed to identify and monitor the solid-state form changes of the solids (amorphous, crystalline, or a mixture of both) and to determine the temperatures of glass transition (Tg), crystallization (Tc), and melting (Tm). Approximately 1–5 mg of sample was weighed and transferred into standard aluminum pans. The lids were pin-holed to allow evaporation of any solvent or moisture. Depending on the Tg, the samples were equilibrated at either −70 °C or 0 °C to allow for at least a 20 °C baseline prior to the Tg measurement, followed by heating up to 20–30 °C above the Tm at 3 °C/min and a temperature modulation of ±1 °C every 60 s. Analyses and integrations of the thermograms were performed using TA Instruments Universal Analysis 2000 for Windows (Version 4.5A, Sollentuna, Sweden) software.
In addition to MDSC, the samples were examined by Raman spectroscopy using a Rxn-2 Hybrid Raman Spectrometer (Kaiser Optical System Inc., Ann Arbor, MI, USA). […]

[3] = aged and/or crystallized spray-dried (SD Tn, stored at 75% RH)
[4] = spray-dried samples (fresh and aged), as summarised in text from Figures 2 and 3
[5] = 2-day sample (SD T2D; 23% crystalline) stored at 75% RH
[6] = 2-day-old sample containing 23% crystallinity
[7] = 7-day sample (SD T7D; completely crystalline) stored at 75% RH

Compound	RAUC (AUC ratio spray-dried/crystalline) [1, 3]	RCmax,app (Cmax,app ratio spray-dried/crystalline) [1, 3]	RAUC (AUC ratio spray-dried/crystalline) ([1]; freshly spray-dried (SD T0))	RCmax,app (Cmax,app ratio spray-dried/crystalline) ([1]; freshly spray-dried (SD T0))	Estimated Amorphous Content at Day 168 [2]	Stability for 168 Days at 75% RH [2]	Crystal Growth [2]	Crystallization Initiation Propensity [2]	Time to Complete Crystallization [2]	Time to Start Crystallization [2]	further results
COc1ccc(Cl)cc1C(=O)NCCc1ccc(S(=O)(=O)NC(=O)NC2CCCCC2)cc1 [Glibenclamide, glibenclamide]	4.4	7.6	4.1	7.2	94%	Moderate	Slow	High	>168 days	1 days	RAUC, times higher than the crystalline counterparts [1, 4]: ~4 times; RCmax,app, times higher than the crystalline counterparts [1, 4]: approximately 7 times; Estimated Amorphous Content at Day 168 ([2]; listed as glibenclamide): approximately 94%; Estimated crystalline content ([2]; after 168 days at 75% RH): 6%
NS(=O)(=O)c1cc2c(cc1Cl)NCNS2(=O)=O [Hydrochlorothiazide, hydrochlorothiazide]	–	–	–	–	0%	Low	Rapid	High	1 days	1 days	–
C[C@]12CCC(=O)C=C1CC[C@@H]1[C@@H]2[C@@H](O)C[C@@]2(C)[C@H]1CC[C@]2(O)C(=O)CO [Hydrocortisone, hydrocortisone]	–	–	–	–	~89%	Moderate	Slow	High	–	1 days	Estimated crystalline content ([2]; after 168 days at 75% RH): 11%
CC1Cc2ccccc2N1NC(=O)c1ccc(Cl)c(S(N)(=O)=O)c1 (centres unmarked) [Indapamide, indapamide]	2.1	2.5	1.9	2.3	100%	High	–	Low	>168 days	>168 days	Time to Start Crystallization ([2]; listed as indapamide): ≥ 168 days
CC(=O)N1CCN(c2ccc(OCC3COC(Cn4ccnc4)(c4ccc(Cl)cc4Cl)O3)cc2)CC1 (centres unmarked) [Ketoconazole, ketoconazole]	0.8	1.1	1.6	2.0	0%	Low	Rapid	High	7 days	1 days	Ratio AUC (RAUC) [1, 5]: 0.7; Ratio Cmax (RCmax,app) [1, 5]: 0.9; Decrease of AUC ratio versus fresh sample [1, 6]: 50%; Decrease of Cmax ratio (Cmax,app) versus fresh sample [1, 6]: 50%; Ratio AUC (RAUC) [1, 7]: 0.8; Ratio Cmax (RCmax,app) [1, 7]: 1.1; Decrease of RCmax,app versus fresh sample ([1]; completely crystallized spray-dried sample): 50%; Estimated crystalline content ([2]; 2-day sample (T2D) at 75% RH): 23%
Cc1ccccc1N1C(=O)c2cc(S(N)(=O)=O)c(Cl)cc2NC1C (centres unmarked) [Metolazone, metolazone]	1.8	2.8	1.5	2.8	100%	High	–	Low	>168 days	>168 days	Time to Start Crystallization ([2]; listed as metolazone): ≥ 168 days
Nc1ccc(S(=O)(=O)Nc2nccs2)cc1 [Sulfathiazole, sulfathiazole]	1.5	1.5	1.5	1.6	0%	Low	Rapid	High	1 days	1 days	–
